Here are results for six compounds from ChEMBL document CHEMBL1201862, “PubChem BioAssay data set” (2004).

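48-hour exposure; five concentrations; linearly interpolated endpoints. GI50 marks 50% less growth.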 Activity calls are given as the source filed them. Cut-off read from the data, not from the text of the source: active = GI50 up to about 1.1 µM and inactive = higher. Some results are limits rather than exact numbers.

Test systems include A498; COLO 205; EKVX; HCT-15; HT-29; OVCAR-4; OVCAR-8; RXF 393; SK-MEL-28; SN12C; SNB-75; U-251; LOX IMVI; Malme-3M; NCI-H522; SK-OV-3.
Common to all, as to experiment: growth of human tumour cells (NCI), 48 h

With `Cc1cc2c(=O)c3ccccc3[nH]c2c(C(=O)O)c1C`, the GI50 in the assay with A498 was > 100 µM (inactive); in the assay with COLO 205, > 100 µM (inactive); in the assay with EKVX it was 66.5 µM (inactive); in the assay with HCT-15, > 100 µM; in the assay on HT-29 it was > 100 µM (inactive); with OVCAR-4, > 100 µM (inactive). The GI50 was > 100 µM (inactive) in the assay with OVCAR-8; 67.1 µM (inactive) in the assay with RXF 393; > 100 µM (inactive) in the assay on SK-MEL-28; > 100 µM (inactive) with SN12C; 31.6 µM (inactive) with SNB-75; > 100 µM (inactive) with U-251.

Turning to `CCC(=C(c1ccc(OCc2ccccc2)cc1)c1ccc(OCc2ccccc2)cc1)c1ccc(OC)cc1`, the GI50 with COLO 205 was > 100 µM (inactive); in the assay on EKVX, > 100 µM (inactive); in the assay on HCT-15, > 100 µM; in the assay on HT-29 it was > 100 µM (inactive); in the assay on LOX IMVI, > 100 µM (inactive); with Malme-3M, > 100 µM (inactive). For the same compound, the GI50 with NCI-H522, in the assay with OVCAR-4, in the assay with OVCAR-8, in the assay with RXF 393, in the assay on SK-MEL-28 and with SK-OV-3 was > 100 µM (inactive) each time. Moreover, the GI50 with SN12C, with SNB-75 and in the assay on U-251 was > 100 µM (inactive) throughout.

Consider `O=CC1CCC=CC1NC(=O)OCc1ccccc1` (stereo unspecified), for which the GI50 in the assay on COLO 205 is > 100 µM (inactive); in the assay with EKVX it was > 100 µM (inactive); in the assay with HCT-15, 54.8 µM; in the assay on HT-29, 51.4 µM (inactive); in the assay on LOX IMVI, 48.4 µM (inactive); in the assay on NCI-H522, > 100 µM (inactive). For the same compound, the GI50 in the assay on OVCAR-4 was 94.6 µM (inactive); with OVCAR-8 it was 22.7 µM (inactive); in the assay with RXF 393, 54.6 µM (inactive); in the assay on SK-MEL-28 it was > 100 µM (inactive); in the assay with SK-OV-3, > 100 µM (inactive); in the assay on SN12C, 35 µM (inactive). In addition, the GI50 in the assay with SNB-75 is 29.2 µM (inactive); in the assay on U-251, 57.5 µM (inactive).

With `CC(=O)C1C(c2ccccc2)C2(C)OC(=O)C(C#N)C12C` (stereo unspecified), the GI50 in the assay on COLO 205 was > 100 µM (inactive); with EKVX, > 100 µM (inactive); in the assay on HCT-15 it was > 100 µM; in the assay with LOX IMVI it was > 100 µM (inactive); with Malme-3M, > 100 µM (inactive); in the assay on OVCAR-4 it was > 100 µM (inactive). Moreover, the GI50 in the assay with OVCAR-8, with RXF 393, with SK-MEL-28, with SK-OV-3, in the assay with SN12C and in the assay with SNB-75 was > 100 µM (inactive) each time. For the same compound, in the assay on U-251, the GI50 is > 100 µM (inactive).

On to `Cc1ccc(-c2cc(=O)c3cc(C)c(C)c(C(=O)O)c3o2)cc1N`, for which the GI50 with COLO 205 is > 100 µM (inactive); in the assay with EKVX, > 100 µM (inactive); with HCT-15, > 100 µM; in the assay on HT-29 it was > 100 µM (inactive); in the assay on LOX IMVI, > 100 µM (inactive); with Malme-3M, > 100 µM (inactive). Besides, the GI50 in the assay on NCI-H522, in the assay on OVCAR-4, in the assay on OVCAR-8, in the assay with RXF 393, in the assay on SK-MEL-28 and in the assay with SK-OV-3 was > 100 µM (inactive) in each case. For the same compound, the GI50 in the assay with SN12C, in the assay with SNB-75 and in the assay on U-251 was > 100 µM (inactive) throughout.

Consider `CC12OC3(O)C4C5CC(C6C5C3C61)C42` (stereo unspecified), for which the GI50 with COLO 205 is > 100 µM (inactive); in the assay on HCT-15 it was > 100 µM; in the assay on Malme-3M it was > 100 µM (inactive); with NCI-H522 it was > 100 µM (inactive); in the assay with OVCAR-4, > 100 µM (inactive); in the assay on OVCAR-8 it was > 100 µM (inactive). The GI50 in the assay on RXF 393, in the assay with SK-MEL-28, with SK-OV-3, in the assay with SN12C, in the assay with SNB-75 and with U-251 was > 100 µM (inactive) each time.
